Laboratory results as given in ChEMBL document CHEMBL1135555 (Bioorg Med Chem Lett, 2002).

Experiments:
[1] = Inhibition of Phosphodiesterase 3 from rat diaphragm
[2] = target: cGMP-specific 3',5'-cyclic phosphodiesterase (Rattus norvegicus, UniProt O54735); test: Inhibition of Phosphodiesterase 5 from rat diaphragm

IC50 [1]	IC50 [2]	Ki [2]	Compound
12.8 µM	10.6 µM	–	C=C(C)C(CCC(C)(C)O)Cc1c(O)cc(OC)c2c1O[C@H](c1ccc(O)cc1O)[C@H](O)C2=O (stereo partly specified)
13.5 µM	–	–	C=C(C)C(CCC(C)(C)O)Cc1c(O)cc(OC)c2c1O[C@H](c1ccc(O)cc1O)[C@@H](O)C2=O (stereo partly specified)
1.25 µM	0.64 µM	–	C=C(C)[C@H](CC=C(C)C)Cc1c(O)cc(OC)c(C(=O)/C=C/c2ccc(O)cc2O)c1O [KURAIDIN]
2.95 µM	6.1 µM	–	C=C(C)[C@H](CCC(C)(C)O)Cc1c(O)cc(OC)c2c1O[C@H](c1ccc(O)cc1O)CC2=O [KURARINOL]
0.74 µM	–	–	Cc1[nH]c(=O)c(C#N)cc1-c1ccncc1 [MILRINONE]
0.41 µM	0.013 µM	0.005 µM	COc1cc(O)c(CC=C(C)C)c2oc(-c3ccc(O)cc3)c(O)c(=O)c12 [SOPHOFLAVESCENOL]
